According to paper PMC8998618, “A Pharmacokinetic and Metabolism Study of the TRPC6 Inhibitor SH045 in Mice by LC-MS/MS” (International Journal of Molecular Sciences, 2022):

Assays:
[1] = detection of SH045 metabolites in MLM, HLM and mouse urine by LC-MS/MS; type: in vitro ADME, mouse and human; settings: metabolite of SH045 detected in MLM, HLM (NADPH, UDPGA) and/or mouse urine after 20 mg/kg BW i.v.
Procedure: To explore metabolites of SH045 formed by microsomes, DPBS, alamethicin (25 µg/mL) and MLM or HLM (1.0 mg/mL) were pre-incubated, further incubated with SH045 MgCl2, NADPH and UDPGA, terminated, and processed for LC-MS/MS analysis as described. Positive controls with testosterone and 4-nitrophenol and negative controls were analyzed too (Supplementary Materials SM7).
Larixyl-N-methylcarbamate ((1S,4S,4aR,8aS)-4-((S)-3-hydroxy-3-methylpent-4-en-1-yl)-4a,8,8-trimethyl-3-methylenedeca-hydro-naphthalen-1-yl methylcarbamate, SH045, TRPC6 inhibitor) was synthesized as described by Häfner et al. [1]. (+)-Larixol (internal standard, IS) was isolated from Larix decidua turpentine [2]. Kolliphor® EL was obtained from Caelo (Hilden, Germany). […]
SM2 Quantification of SH045 by HPLC and tandem mass spectrometric methods (LC-MS/MS) In brief, chromatographic separation was achieved using a Zorbax Eclipse XDB-C8 column (100 × 3.0 mm, 3.5 μm 80 Å, Agilent Technologies) with linear gradient elution using water and ACN, each with 0.1 % formic acid as additive, during a total run time of 20 min. For quantification (+)-larixol was used as IS. […] Freshly prepared calibration samples for SH045 in plasma and tissue comprised eight concentration levels analyzed in duplicates (2, 5, 10, 100, 200, 800, 1200 and 1600 ng/mL). […]

[2] = tested on: TRPC6; settings: Ca^2+ influx assays; cited from earlier work
[3] = tested on: FSGS-related TRPC6 channel mutants, including M132T and R175Q; design: method as in PMID 28800680; settings: including M132T and R175Q variants; cited from earlier work

Row | SMILES | Occurrence [1] | IC50 [2] [nM] | inhibition of FSGS-related TRPC6 channel mutants [3]
1 | CC[C@@](C)(O)CC[C@H]1C(C)C[C@H](OC(=O)NC)[C@H]2C(C)(C)CCC[C@]12C (some centres unmarked) [M2a] | MLM, HLM |  | 
2 | C=C[C@](C)(CC[C@H]1C(=C)C[C@H](OC(=O)NC)[C@H]2C(C)(C)CCC[C@]12C)O[C@@H]1O[C@H](C(=O)O)[C@@H](O)[C@H](O)[C@H]1O [M8a] | MLM, HLM |  | 
3 | C=CC(C)(O)CCC1C(=C)CC(OC(C)=O)C2C(C)(C)CCCC12C (centres unmarked) [larixyl monoacetate] |  | ~500 | 
4 | C=CC(C)(O)CCC1C(=C)CC(OC(N)=O)C2C(C)(C)CCCC12C (centres unmarked) [larixyl-6-carbamate] |  | ~500 | strong inhibitor
